Experimental data published in US6083959A, “Quinoline derivatives, processes for their preparation and their use as medicaments” (Fujisawa Pharmaceutical Co., Ltd., priority 1996, dated 2000).
pIC50: −log10 of the molar value. Where a name gives a salt, the structure may show the parent alone.

Target: T1, Bradykinin Receptor (Cavia porcellus, UniProt O70526)
T1 construct: The ileum was removed and homogenized in buffer; from tissue; host or cells: guinea pig (male Hartley strain) ileum, crude membrane
T1 sequence (O70526 1-372): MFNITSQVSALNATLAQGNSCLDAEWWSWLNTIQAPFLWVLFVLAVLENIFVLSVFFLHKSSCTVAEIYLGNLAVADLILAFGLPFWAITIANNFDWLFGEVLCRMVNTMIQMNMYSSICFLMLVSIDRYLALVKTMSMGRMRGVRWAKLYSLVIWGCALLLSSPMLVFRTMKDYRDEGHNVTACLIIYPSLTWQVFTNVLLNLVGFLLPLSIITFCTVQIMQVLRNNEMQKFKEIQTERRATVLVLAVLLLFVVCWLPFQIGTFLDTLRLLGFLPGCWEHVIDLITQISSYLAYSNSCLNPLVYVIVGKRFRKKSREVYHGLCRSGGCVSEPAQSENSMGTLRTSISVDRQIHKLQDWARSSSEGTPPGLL
Experiment: ^3 H-Bradykinin Receptor Binding (crude guinea pig ileum membrane)
Conditions: ^3 H-Bradykinin 0.06 nM, room temperature, 60 minutes, read-out: Inhibition of ^3 H-Bradykinin binding IC50
Protocol: ^3 H-Bradykinin Receptor Binding
(a) Crude Ileum Membrane Preparation
Male Hartly strain guinea pigs were sacrificed by decapitation. The ileum was removed and homogenized in buffer (50 mM 2-[[tris(hydroxymethyl)methyl]amino]-1-ethanesulfonic acid (TES), 1 mM 1,10-phenanthroline pH 6.8). The homogenate was centrifuged (1000×g,20 minutes) to remove tissue clumps and the supernatant was centrifuges (100,000×g, 60 minutes) to yield a pellet. The pellet was resuspended in buffer (50 mM TES, 1 mM 1,10-phenanthroline, 140 mg/l bacitracin, 1 mM dithiothreiol, 0.1% bovine serum albumin pH 6.8) and homogenized with a glass-teflon homogenizer to yield suspension which was referred to as crude membrane suspension. The obtained membrane suspension was stored at -80° C. until use.
(b) ^3 H-Bradykinin Binding to the Membrane
The frozen crude membrane suspension was thawed. In binding assays, ^3 H-Bradykinin (0.06 nM) and drug were incubated with 50 μl of the membrane suspension at room temperature for 60 minutes in a final volume of 250 μl. Separation of receptor-bound from free ^3 H-Bradykinin is achieved by immediate filtration under vacuum and washed three times with 5 ml of ice-cold buffer (50 mM Tris-HCl pH 7.5). Non-specific binding was defined as binding in the presence of 0.1 μM Bradykinin. The radioactivity retained on rinsed filters was determined by a liquid-scintillation counter.

Row | Structure (SMILES) | pIC50
1 | CCOC(=O)c1ccc(C=CC(=O)NCC(=O)N(C)c2ccc(Cl)c(COc3cccc4c(-n5ccnc5)cc(C)nc34)c2Cl)cc1 [17-(1), 8-[2,6-Dichloro-3-[N-(4-ethoxycarbonylcinnamoylglycyl)-N-methylamino]benzyloxy]-4-(imidazol-1-yl)-2-methylquinoline] | 8.41
2 | Cc1cc(-n2cncn2)c2cccc(OCc3c(Cl)ccc(N(C)C(=O)CNC(=O)C=Cc4ccc(C(=O)N(C)C)cc4)c3Cl)c2n1 [12 (dihydrochloride), 8-[2,6-Dichloro-3-[N-methyl-N-[4-(dimethylcarbamoyl)cinnamoylglycyl]amino]benzyloxy]-2-methyl-4-(1,2,4-triazol-1-yl)quinoline] | 8.04
3 | Cc1cc(-n2cccn2)c2cccc(OCc3c(Cl)ccc(N(C)C(=O)CNC(=O)C=Cc4ccc(C(=O)N(C)C)cc4)c3Cl)c2n1 [11-(4) (dihydrochloride), 8-[2,6-Dichloro-3-[N-methyl-N-[4-(dimethylcarbamoyl)cinnamoylglycyl]amino]benzyloxy]-2-methyl-4-(pyrazol-1-yl)quinoline] | 8.48
4 | Cc1cc(-n2ccnc2)c2cccc(OCc3c(Cl)ccc(N(C)C(=O)CNC(=O)Nc4cccc(C(=O)Nc5ccncc5)c4)c3Cl)c2n1 [3 (trihydrochloride), 8-[2,6-dichloro-3-[N-methyl-N-[N'-[3-[N-(4-pyridyl)carbamoyl]phenyl]ureidoacetyl]amino]benzyloxy]-4-(imidazol-1-yl)-2-methylquinoline] | 8.18
5 | Cc1cc(-n2ccnc2)c2cccc(OCc3c(Cl)ccc(N(C)C(=O)CNC(=O)C=Cc4ccc(C(=O)NCc5ccccn5)cc4)c3Cl)c2n1 [2-(3) (trihydrochloride), 8-[2,6-Dichloro-3-[N-methyl-N-[4-[N-(2-pyridylmethyl)carbamoyl]cinnamoylglycyl]amino]benzyloxy]-4-(imidazol-1-yl)-2-methylquinoline] | 8.35
